Laboratory results taken from paper PMC11162475, “Rule-based omics mining reveals antimicrobial macrocyclic peptides against drug-resistant clinical isolates” (Nature Communications, 2024).

Experiments:
chymotrypsin = conditions: 32 μg/mL in H2O, protease 100:1 (w:w), 37 °C, 4 h, 8 h and 12 h, UPLC-LRMS
Description: Protease stability of massatide A
We selected TEV protease, Endoproteinase AspN, Endoproteinase GluC, trypsin, and chymotrypsin to evaluate the stability of massatide A. The protease digestion assay was conducted as follows: (i) Stock solution of massatide A (3.2 mg/mL in DMSO) was diluted in H2O with final concentration of 32 μg/mL, (ii) each protease was added with 100:1 (w:w) ratio and incubated under corresponding temperature, i.e., 37 °C for TEV protease, trypsin, and chymotrypsin and 30 °C for Endoproteinase AspN and […]
Endoproteinase GluC. […]
1 μ L samples were taken and diluted with water for UPLC -LRMS analysis. […]

[1] = test system: Micrococcus luteus DSM1790; test: Kirby-Bauer assay, zone of inhibition (agar well); type: cell-based; conditions: M. luteus DSM1790; 10 μL DMSO stock (3.2 or 1.6 mg/mL) in well of soft LB agar, 30 °C, 20 h
Description: (§1) The stock solution of massatide A (1) and B (1a) 3.2 mg/mL were prepared in DMSO. 40 μL overnight culture of Micrococcus luteus DSM1790 was added to 20 mL soft Luria-Bertani agar (1% agar), and then poured into a plate. 10 μL tip was used to make two wells on the plate. 10 μL massatide A (1) or B (1a) solution was added in one of the wells, while in the other well, 10 μL DMSO was added as a negative control. The plates were incubated at 30 °C for 20 h to observe the zone of inhibition. Staphylococcus aureus ATCC25923 was also used to observe the inhibition zone using a similar method. The only difference is incubating at 37 °C. Stock solutions of sistertide A1, kebanetide A1 and A2 were 3.2 mg/mL, 1.6 mg/mL and 1.6 mg/mL, respectively. The method to observe the activity of these compounds individually was the same as that of massatide.

[2] = test system: Staphylococcus aureus ATCC25923; test: Kirby-Bauer assay, zone of inhibition (agar well); type: cell-based; conditions: S. aureus ATCC25923; 10 μL of 3.2 mg/mL DMSO stock in well of soft LB agar, 37 °C, 20 h
Description: as §1

MRSA ATCC43300 = test: Mouse septicaemia model; type: in vivo; conditions: for number of new dead mouse: infection controlled in mouse; for survival rate of mice: 5 per group
Description: Briefly, 6-week-old specific pathogen-free male ICR mice weighing 18–20 g were randomly divided into 4 groups (5 per group). Each mouse received an intraperitoneal injection on the left side of the abdomen with 0.4 ml, 1.8 ×10^10 c.f.u./mL MRSA ATCC43300 suspended in saline containing 5% yeast in each mouse. One hour after infection, the mice were injected intraperitoneally with saline (negative control), massatide A dissolved in saline at 10 mg/kg, 30 mg/kg and 50 mg/kg (experimental groups). […] We injected 0.4 ml solution to each mouse. Animal deaths were recorded for 7 days, and the survival rates were calculated to generate the mouse survival curve.

[3] = test system: tested gram-positive pathogens, including vancomycin intermediate-resistant strains; type: cell-based; conditions: 20 h
Description: (§2) For MIC determination, Staphylococcus aureus ATCC25923, Bacillus subtilis 168, Micrococcus luteus DSM1790, Enterococcus faecalis OG1RF, Enterococcus faecium MCC2763, Escherichia coli DH5α and Pseudomonas aeruginosa PAO1 were used as indicator strains. Nisin and vancomycin were used as positive controls. A dilution series of massatide A, massatide B, vancomycin (16, 8, 4, 2, 1, 0.5, 0.25, 0.125, 0.0625, 0.0313 μg/mL) and sistertide A1, kebanetide A1, kebanetide A2, nisin (64, 32, 16, 8, 4, 2, 1, 0.5, 0.25, 0.125 μg/mL) were prepared in 96-well plate from 1–10th column. The indicator strains were added to the compound-containing well. The indicator strain culture with no antibiotics was prepared in the 11th column. The 12th column was filled with 200 μL empty MHB medium. The 96-well plate was incubated at 37 °C for 20 h (30 °C for M. luteus and B. subtilis). The OD600 was detected on MULTISKAN Sky (Thermo Scientific) and MIC values were determined. The MIC values of clinical isolates were determined by Sichuan Primed Shines Bio-tech Co., Ltd. (China) following similar protocol. Levofloxacin was used as a positive control.

[4] = test system: Pseudomonas aeruginosa PAO1; type: cell-based; conditions: PAO1, 20 h
Description: as §2

Escherichia coli DH5α = type: cell-based; conditions: DH5α, 20 h
Description: as §2

C/C=C1\NC(=O)C(N(C)C)C(C)SC[C@@H](C(=O)N[C@H](CC)C(=O)N[C@H](C(=O)N[C@@H](C)C(=O)N[C@H](C)C(=O)N[C@@H](Cc2ccccc2)C(=O)N[C@@H](C)C(=O)NC2C(=O)NCC(=O)N[C@@H](Cc3ccc(O)cc3)C(=O)N[C@@H](Cc3ccccc3)C(=O)N[C@H](C)C(=O)N/C=C\SC2C)C(C)C)NC(=O)[C@@H]2CCCN2C(=O)[C@H](C(C)C)NC1=O (some centres unmarked) [Massatide A (1), massatide A]
protease stability (chymotrypsin): resistant | inhibitory activity (zone of inhibition) [1]: strong inhibitory activity | inhibitory activity (zone of inhibition) [2]: strong inhibitory activity | number of new dead mouse (MRSA ATCC43300; 10mg/kg, time 2.29 day): 1 | number of new dead mouse (MRSA ATCC43300; 10mg/kg, time 3 day): 0 | number of new dead mouse (MRSA ATCC43300; 10mg/kg, time 4 day): 0 | number of new dead mouse (MRSA ATCC43300; 10mg/kg, time 6 day): 0 | number of new dead mouse (MRSA ATCC43300; 10mg/kg, time 7 day): 0 | number of new dead mouse (MRSA ATCC43300; 30mg/kg, time 2.29 day): 1 | number of new dead mouse (MRSA ATCC43300; 30mg/kg, time 3 day): 0 | number of new dead mouse (MRSA ATCC43300; 30mg/kg, time 4 day): 0 | number of new dead mouse (MRSA ATCC43300; 30mg/kg, time 6 day): 0 | number of new dead mouse (MRSA ATCC43300; 30mg/kg, time 7 day): 0 | number of new dead mouse (MRSA ATCC43300; 50mg/kg, time 2.29 day): 0 | number of new dead mouse (MRSA ATCC43300; 50mg/kg, time 3 day): 0 | number of new dead mouse (MRSA ATCC43300; 50mg/kg, time 4 day): 0 | number of new dead mouse (MRSA ATCC43300; 50mg/kg, time 6 day): 0 | number of new dead mouse (MRSA ATCC43300; 50mg/kg, time 7 day): 0 | survival rate of mice (MRSA ATCC43300; single dose 10 mg/kg i.p. 1 h after i.p. infection with 7.2 × 10^9 c.f.u. MRSA ATCC43300, 7 days): 80% | survival rate of mice (MRSA ATCC43300; single dose 50 mg/kg i.p. 1 h after i.p. infection with 7.2 × 10^9 c.f.u. MRSA ATCC43300, 7 days): 100% | MIC (potency) against tested gram-positive pathogens [3]: below 4 μg/mL | MIC [4]: >128 µg/mL | MIC (Escherichia coli DH5α): >128 µg/mL
